Measurements taken from patent US7285703B2, “Plant like starches and the method of making them in hosts” (BASF Plant Science GmbH, priority 1998, dated 2007).

How the values were obtained:
[1] = target: T1, maize starch synthase SSI-3 (STSI-3), N-terminally truncated SSI, first 93 amino acids of SSI-1 deleted, N-terminus SIVFVTGE (SEQ ID NO:66) (Zea mays, UniProt O49064); experiment: ADPGlc kinetics of starch synthase SSI-3; format: biochemical; conditions: 5 mg/ml amylopectin as primer, 37° C.
T1 sequence (O49064 with tags, fused parts or gaps): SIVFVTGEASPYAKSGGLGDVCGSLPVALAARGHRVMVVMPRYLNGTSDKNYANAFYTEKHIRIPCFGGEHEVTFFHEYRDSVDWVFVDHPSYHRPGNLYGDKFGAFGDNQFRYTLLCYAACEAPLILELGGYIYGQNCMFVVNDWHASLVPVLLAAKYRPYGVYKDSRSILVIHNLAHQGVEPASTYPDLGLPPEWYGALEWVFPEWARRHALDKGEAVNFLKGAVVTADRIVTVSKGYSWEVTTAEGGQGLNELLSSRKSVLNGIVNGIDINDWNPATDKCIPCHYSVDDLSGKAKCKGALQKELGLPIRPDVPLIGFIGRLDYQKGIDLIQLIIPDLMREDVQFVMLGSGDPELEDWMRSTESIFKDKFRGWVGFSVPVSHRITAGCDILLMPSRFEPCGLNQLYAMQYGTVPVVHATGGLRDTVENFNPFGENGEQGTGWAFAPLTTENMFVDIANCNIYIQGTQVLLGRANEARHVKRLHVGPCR
Source text: FIG. 58. SSI-1, SSI-2, and SSI-3 construct design. Three forms of SSI were constructed in the pET expression (see Methods). pExs10a encodes SSI-1, the full length maize SSI (583 amino acids) which has the N-terminal sequence CVAELSREGP (SEQ ID NO:64). pExs8 encodes a truncated SSI, SSI-2, with amino acids # 8-52 deleted from the N-terminus of SSI-1 and which has the N-terminal sequence CVAELSR/DLG (SEQ ID NO:65). pExs1d encodes the most truncated form of SSI, SSI-3, with the first 93 amino acids deleted from SSI-1 and which has the N-terminal sequence SIVFVTGE (SEQ ID NO:66). A depiction of the waxygene, encoding GBSS, which has the N-terminal sequence ASAGMNW (SEQ ID NO:67), is also included for comparison. The amino acid motif KS/TGGL (SEQ ID NO:9), the putative binding site for ADGPGlc, in indicated by the triangles. The KS/TGGL (SEQ ID NO:9) motif is located 18 amino acids from the N-terminus in GBSS, while the motif is 106 amino acids from the N-terminus in maize SSI. Drawing not to scale.
5 mL of supernatant were used to assay STS and SBE activities as previously described (Preiss) with minor modification. […] The unincorporated [^14C]-ADPGlc was separated with Dowex anion exchange column (200-400 mesh, Sigma Chemical Co.). […] SBE activity was determined by phosphorylase stimulation assay. One unit of activity is defined as 1 mmol Glc incorporated into the a-glucan per min at. […]

[2] = target: T2, maize starch synthase SSI-2 (STSI-2), N-terminally truncated SSI, amino acids 8-52 of SSI-1 deleted, N-terminus CVAELSR/DLG (SEQ ID NO:65) (Zea mays, UniProt O49064, DEL47-91); experiment: ADPGlc kinetics of starch synthase SSI-2; conditions: 5 mg/ml amylopectin as primer, 37° C.
T2 sequence (O49064 with tags, fused parts or gaps DEL47-91): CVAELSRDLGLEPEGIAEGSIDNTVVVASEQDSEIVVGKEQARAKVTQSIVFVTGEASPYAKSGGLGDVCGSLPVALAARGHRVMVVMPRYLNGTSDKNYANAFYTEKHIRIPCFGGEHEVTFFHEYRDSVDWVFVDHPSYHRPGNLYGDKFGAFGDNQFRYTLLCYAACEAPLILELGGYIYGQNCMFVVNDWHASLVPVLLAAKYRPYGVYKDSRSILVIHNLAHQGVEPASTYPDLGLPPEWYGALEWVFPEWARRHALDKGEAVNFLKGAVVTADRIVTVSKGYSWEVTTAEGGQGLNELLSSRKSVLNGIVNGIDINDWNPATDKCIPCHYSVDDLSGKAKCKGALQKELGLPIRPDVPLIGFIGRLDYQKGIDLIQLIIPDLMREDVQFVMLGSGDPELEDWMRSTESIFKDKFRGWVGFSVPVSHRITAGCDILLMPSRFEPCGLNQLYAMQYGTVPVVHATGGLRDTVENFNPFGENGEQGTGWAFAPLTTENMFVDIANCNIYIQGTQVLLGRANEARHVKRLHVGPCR
Method: (SEQ ID NO:64). pExs8 encodes a truncated SSI, SSI-2, with amino acids # 8-52 deleted from the N-terminus of SSI-1 and which has the N-terminal sequence CVAELSR/DLG (SEQ ID NO:65). pExs1d encodes the most truncated form of SSI, SSI-3, with the first 93 amino acids deleted from SSI-1 and which has the N-terminal sequence [sequence]
5 mL of supernatant were used to assay STS and SBE activities as previously described (Preiss) with minor modification. The reaction mixture for STS contained 100 mM Bicine buffer, 10 mg/mL glycogen, 0.5 mg/mL BSA, 0.5 M sodium citrate, 25 mM potassium acetate, 10 mM GSH, 3 mM [^14C]-ADPGlc (500 dpm/nmol) and enzyme in a final volume of 0.1 mL. The reaction was carried out at 25° C. for 15 min and terminated by boiling for 2 min. The unincorporated [^14C]-ADPGlc was separated with Dowex anion exchange column (200-400 mesh, Sigma Chemical Co.). One unit of activity is defined as 1 nmol Glc incorporated into the a-glucan per min at 25° C.
For the recombinant SS purification, the cell pellet was resuspended in sonication buffer (50 mM Tris-acetate, pH 7.5, 10 mM EDTA, and 5 mMDTT; 7 ml buffer per gram of cell mass), and cells were lysed using a Fisher 550 Sonic Dismembrator with 5×1 min. bursts with 30 sec. intervals. The homogenate was centrifuged at 9600 g for 30 minutes. SSI in the supernatant was then precipitated by slowly adding neutralized saturated ammonium sulfate to 40% saturation. After stirring on ice for an additional 50 minutes, proteins were collected by centrifugation at 12500 g for 45 minutes. The protein pellet was then redissolved in buffer A (50 mM Tris, pH 5.5, 1 mM EDTA, and 5 mM DTT) containing 0.1 M KCl and dialyzed against the same buffer, with one change of buffer. After dialysis, the sample was centrifuged at 13000 g for 20 minutes to remove insoluble materials. The resulting supernatant was loaded onto amylase affinity column pre-equilibrated with dialysis buffer, and the flow through was collected. […]

For Nc1ncnc2c1ncn2[C@@H]1O[C@H](COP(=O)(O)OP(=O)(O)O[C@H]2O[C@H](CO)[C@@H](O)[C@H](O)[C@H]2O)[C@@H](O)[C@H]1O [ADPGlc, adenosine diphosphate glucose], the “Vm (ADPGlc kinetics)” value ([1]; +citrate) was 26.4 ± 1.4 μmol/min/mg protein, the “Vm (ADPGlc kinetics)” value ([1]; −citrate) was 14.7 ± 1.3 μmol/min/mg protein and the “Vm (ADPGlc kinetics)” value ([2]; +citrate) was 32.6 ± 0.8 μmol/min/mg protein. The “Vm (ADPGlc kinetics)” value ([2]; −citrate) was 11.7 ± 0.7 μmol/min/mg protein.
